Tests used:
Type in all cases: biochemical
[1] = biological target: T1, recombinant soluble tissue factor and recombinant human factor VIIa (TF-VIIa) (Homo sapiens, UniProt P08709); test: TF-VIIa Assay
T1 construct: purchased American Diagnostica, Greenwich Conn; host or cells: soluble TF made in house in E. coli
Experimental: In this assay 100 nM recombinant soluble tissue factor and 2 nM recombinant human factor VIIa are added to a 96-well assay plate containing 0.4 mM of the substrate, N-Methylsulfonyl-D-phe-gly-arg-p-nitroaniline and either inhibitor or buffer (5 mM CaCl2, 50 mM Tris-HCl, pH 8.0, 100 mM NaCl, 0.1% BSA). The reaction, in a final volume of 100 ul is measured immediately at 405 nm to determine background absorbance. The plate is incubated at room temperature for 60 min, at which time the rate of hydrolysis of the substrate is measured by monitoring the reaction at 405 nm for the release of p-nitroaniline. Percent inhibition of TF-VIIa activity is calculated from OD405 nm value from the experimental and control sample.
(§1) Recombinant soluble TF, consisting of amino acids 1-219 of the mature protein sequence was expressed in E. coli and purified using a Mono Q Sepharose FPLC. Recombinant human VIIa was purchased from American Diagnostica, Greenwich Conn. and chromogenic substrate N-Methylsulfonyl-D-phe-gly-arg-p-nitroaniline was prepared by American Peptide Company, Inc., Sunnyvale, Calif. Factor Xa was obtained from Enzyme Research Laboratories, South Bend Ind., thrombin from Calbiochem, La Jolla, Calif., and trypsin and L-BAPNA from Sigma, St. Louis Mo. The chromogenic substrates S-2765 and S-2238 were purchased from Chromogenix, Sweden.

Human factor Xa = biological target: T2, Human factor Xa (Homo sapiens, UniProt P00742); test: Xa Assay
T2 construct: purchased Enzyme Research Laboratories, South Bend Ind
T2 sequence (P00742 235-488 limits assumed): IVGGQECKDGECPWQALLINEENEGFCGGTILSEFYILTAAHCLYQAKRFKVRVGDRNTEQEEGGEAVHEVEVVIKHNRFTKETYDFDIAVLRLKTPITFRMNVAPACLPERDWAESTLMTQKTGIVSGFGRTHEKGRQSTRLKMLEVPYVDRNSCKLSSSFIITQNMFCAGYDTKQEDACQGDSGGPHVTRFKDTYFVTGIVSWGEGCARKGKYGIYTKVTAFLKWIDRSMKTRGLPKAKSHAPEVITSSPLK
T2 sequence (P00742 41-179 limits assumed): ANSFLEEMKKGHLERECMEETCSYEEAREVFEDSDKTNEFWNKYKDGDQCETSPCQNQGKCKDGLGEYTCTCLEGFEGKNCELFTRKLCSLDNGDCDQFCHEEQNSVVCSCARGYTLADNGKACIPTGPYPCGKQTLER
Experimental: (§2) Human factor Xa (0.3 nM) and 0.15 mM N-a-Benzyloxycarbonyl-D-arginyl-L-glycyl-L-arginine-p-nitroaniline-dihydrochloride (S-2765) are added to a 96-well assay plate containing either inhibitor or buffer (50 mM Tris-HCl, pH 8.0, 100 mM NaCl, 0.1% BSA). The reaction, in a final volume of 100 ul is measured immediately at 405 nm to determine background absorbance. The plate is incubated at room temperature for 60 min, at which time the rate of hydrolysis of the substrate is measured by monitoring the reaction at 405 nm for the release of p-nitroaniline. Percent inhibition of Xa activity is calculated from OD405 nm value from the experimental and control sample.
as §1

Human thrombin = Human thrombin (Homo sapiens, UniProt P00734); test: Thrombin Assay; settings: read-out: Thrombin II IC50
Experimental: as §2, with “thrombin (0.28 nm)and 0.06” for “factor Xa (0.3 nM) and 0.15”, “H-D-Phenylalanyl-L-pipecolyl-L-arginine-p-nitroaniline dihydrochloride” for “N-a-Benzyloxycarbonyl-D-arginyl-L-glycyl-L-arginine-p-nitroaniline-dihydrochloride (S-2765)”, “thrombin” for “Xa”, “OD405nm” for “OD405 nm”
as §1

[2] = biological target: T3, Trypsin (type 1× from porcine pancreas) (Sus scrofa, UniProt P00761); test: Trypsin Assay; settings: read-out: Trpysin II IC50
T3 construct: Trypsin (5 ug/ml; type 1× from porcine pancreas); purchased Sigma, St. Louis Mo; host or cells: porcine pancreas
T3 sequence (P00761 9-231): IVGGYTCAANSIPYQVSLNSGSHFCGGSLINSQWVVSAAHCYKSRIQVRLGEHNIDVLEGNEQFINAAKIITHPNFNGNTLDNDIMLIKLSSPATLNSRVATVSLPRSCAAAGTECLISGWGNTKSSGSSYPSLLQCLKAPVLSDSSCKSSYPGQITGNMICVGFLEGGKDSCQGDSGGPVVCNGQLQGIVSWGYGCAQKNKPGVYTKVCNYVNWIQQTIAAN
Experimental: Trypsin (5 ug/ml; type 1× from porcine pancreas) and 0.375 mM N-α-Benzoyl-L-arginine-p-nitroanilide (L-BAPNA) are added to a 96-well assay plate containing either inhibitor or buffer (50 mM Tris-HCl, pH 8.0, 100 mM NaCl, 0.1% BSA). The reactions, in a final volume of 100 ul are measured immediately at 405 nm to determine background absorbance. The plate is incubated at room temperature for 60 min, at which time the rate of hydrolysis of the substrate is measured by monitoring the reaction at 405 nm for the release of p-nitroaniline. Percent inhibition of trypsin activity is calculated from OD405 nm value from the experimental and control sample.
as §1

[3] = read-out: Factor Xa percent inhibition

T1 sequence (P08709 213-466 limits assumed): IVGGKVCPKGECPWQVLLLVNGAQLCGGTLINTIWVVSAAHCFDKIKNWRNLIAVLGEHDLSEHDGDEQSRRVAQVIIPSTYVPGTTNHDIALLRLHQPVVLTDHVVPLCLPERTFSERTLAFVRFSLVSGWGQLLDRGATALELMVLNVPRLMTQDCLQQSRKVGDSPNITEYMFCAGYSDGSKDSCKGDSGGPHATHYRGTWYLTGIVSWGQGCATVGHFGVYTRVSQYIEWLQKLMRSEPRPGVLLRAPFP
T1 sequence (P08709 61-212 limits assumed): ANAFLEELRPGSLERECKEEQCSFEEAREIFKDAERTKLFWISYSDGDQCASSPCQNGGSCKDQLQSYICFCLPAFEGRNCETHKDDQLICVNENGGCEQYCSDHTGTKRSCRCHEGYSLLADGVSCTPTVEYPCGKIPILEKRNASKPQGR
T1 sequence (P13726 33-251 partner limits assumed): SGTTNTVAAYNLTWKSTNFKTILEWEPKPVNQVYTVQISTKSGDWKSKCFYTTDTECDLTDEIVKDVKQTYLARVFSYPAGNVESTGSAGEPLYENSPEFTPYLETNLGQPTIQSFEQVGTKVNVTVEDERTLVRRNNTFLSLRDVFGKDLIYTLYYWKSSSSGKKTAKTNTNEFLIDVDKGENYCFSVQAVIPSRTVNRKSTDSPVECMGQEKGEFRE

CC(C)Nc1ccc(-c2ccccc2OCc2ccccc2)c(CC(=O)NCc2ccc(C(=N)N)cc2)[n+]1[O-] [Example 5]
IC50 [1]: 2380 nM
IC50 (Human factor Xa): > 100 µM
IC50 (Human thrombin): 0.37 µM
IC50 [2]: 100 nM

CC(C)Nc1ccc(-c2cc(N)cc(N)c2)c(CC(=O)NCc2ccc(C(=N)N)cc2)[n+]1[O-] [Example 7]
IC50 [1]: 84 nM
IC50 (Human thrombin): 60.7 µM
IC50 [2]: 22 nM

N=C(N)c1ccc(CNC(=O)Cc2nc(NC3CCC3)ccc2-c2cccc(N)c2)cc1 [Example 1]
IC50 [1]: 2460 nM
inhibition at 30 µM (Human factor Xa; [3]): 27%
IC50 (Human thrombin): 0.71 µM
IC50 [2]: 60 nM

CC(C)Nc1ccc(-c2ccccc2CN2C(=O)c3ccccc3C2=O)c(CC(=O)NCc2ccc(C(=N)N)cc2)[n+]1[O-] [Example 13]
IC50 [1]: 1420 nM
IC50 (Human factor Xa): > 100 µM
IC50 (Human thrombin): 12 µM
IC50 [2]: 121 nM

CC(C)Nc1ccc(-c2cc(N)cc(C(=O)O)c2)c(CC(=O)NCc2ccc(C(=N)N)cc2)[n+]1[O-] [Example 3]
IC50 [1]: 720 nM
IC50 (Human factor Xa): > 100 µM
IC50 (Human thrombin): > 100 µM
IC50 [2]: 158 nM

N=C(N)c1ccc(CNC(=O)Cc2c(-c3cccc(N)c3)ccc(NC3CCC3)[n+]2[O-])cc1 [Example 2]
IC50 [1]: 70 nM
inhibition at 30 µM (Human factor Xa; [3]): 26%
IC50 (Human thrombin): 7.13 µM
IC50 [2]: 20 nM

CC(C)Nc1ccc(-c2ccccc2Oc2ccccc2)c(CC(=O)NCc2ccc(C(=N)N)cc2)[n+]1[O-] [Example 6]
IC50 [1]: 6940 nM
IC50 (Human factor Xa): > 100 µM
IC50 (Human thrombin): 86.5 µM
IC50 [2]: 170 nM

CC(C)Nc1ccc(-c2cccc(CO)c2)c(CC(=O)NCc2ccc(C(=N)N)cc2)[n+]1[O-] [Example 9]
IC50 [1]: 1720 nM
IC50 (Human factor Xa): > 100 µM
IC50 (Human thrombin): 6.6 µM
IC50 [2]: 210 nM

CC(C)Nc1ccc(-c2cccc(N)c2)c(CC(=O)NCc2ccc(C(=N)N)cc2)[n+]1[O-] [Example 14]
IC50 [1]: 155 nM
IC50 (Human factor Xa): > 100 µM
IC50 (Human thrombin): 9.9 µM
IC50 [2]: < 140 nM

CC(=O)c1cccc(-c2ccc(NC(C)C)[n+]([O-])c2CC(=O)NCc2ccc(C(=N)N)cc2)c1 [Example 10]
IC50 [1]: 1700 nM
inhibition at 100 µM (Human factor Xa; @ 100 uM, read-out: Factor Xa percent inhibition): 40%
IC50 (Human thrombin): 3 µM
IC50 [2]: 35 nM

CC(C)Nc1ccc(-c2csc3ccccc23)c(CC(=O)NCc2ccc(C(=N)N)cc2)[n+]1[O-] [Example 11]
IC50 [1]: 5600 nM
IC50 (Human factor Xa): 21 µM
IC50 (Human thrombin): 39.5 µM
IC50 [2]: 79 nM

CC(C)Nc1ccc(/C=C/c2ccccc2)c(CC(=O)NCc2ccc(C(=N)N)cc2)[n+]1[O-] [Example 12]
inhibition at 100 µM ([1]; at 100 uM, read-out: TF-VIIA percent inhibition): 23%
IC50 (Human thrombin): 29 µM
IC50 [2]: 990 nM

From patent US20040068113A1, “Substituted polycyclic aryl and heteroaryl pyridines useful for selective inhibition of the coagulation cascade” (priority 2003, published 2004)
